According to patent US20210139477A1, “ALK5 INHIBITORS, CONJUGATES, AND USES THEREOF” (Silverback Therapeutics, Inc., priority 2019, published 2021):

How the values were obtained:
[1] = target: T1, ALK5 (Homo sapiens, UniProt P36897); experiment: ALK5 enzyme inhibition assay (Reaction Biology Corp, 33P-ATP filter-binding, casein substrate); format: biochemical; details: 10 uM ATP, 2 hours at room temperature
T1 construct: purchased Reaction Biology Corp (Malvern, Pa.)
T1 sequence (P36897 34-503): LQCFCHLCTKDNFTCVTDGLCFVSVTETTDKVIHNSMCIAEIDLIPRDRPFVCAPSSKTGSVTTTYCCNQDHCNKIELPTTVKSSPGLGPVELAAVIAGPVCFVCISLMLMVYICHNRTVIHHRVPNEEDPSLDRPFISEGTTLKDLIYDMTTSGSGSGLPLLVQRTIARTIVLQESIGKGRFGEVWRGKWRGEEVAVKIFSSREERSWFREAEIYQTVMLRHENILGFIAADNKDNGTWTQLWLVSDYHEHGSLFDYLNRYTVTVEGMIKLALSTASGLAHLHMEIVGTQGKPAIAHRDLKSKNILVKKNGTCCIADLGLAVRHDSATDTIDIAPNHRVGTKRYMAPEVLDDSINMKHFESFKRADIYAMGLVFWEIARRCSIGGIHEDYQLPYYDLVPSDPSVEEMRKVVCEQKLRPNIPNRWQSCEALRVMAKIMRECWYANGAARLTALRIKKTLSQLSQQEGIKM
Description: ALK5 enzyme inhibition assays were performed by Reaction Biology Corp (Malvern, Pa.). 1 mg/mL of peptide substrate (casein) and 10 uM ATP were prepared in a mixture of fresh reaction buffer. The kinase was delivered into the substrate solution which was gently mixed. Compounds in 100% DMSO were added to the kinase reaction mixture by Acoustic technology (Echo550; nanoliter range) and the mixture was incubated for 20 min at room temperature. ^33P-ATP (Specific activity 10 uCi/uL) was added into the reaction mixture to initiate the reaction and the reaction mixture was incubated for 2 hours at room temperature. Radioactivity was detected by filter-binding method and kinase activity data were expressed as the percent remaining kinase activity in test samples compared to vehicle (dimethyl sulfoxide) reactions. IC50 values and curve fits were obtained using Prism (GraphPad Software).

[2] = test system: TGFb/SMAD Signaling Pathway SBE reporter cell line; experiment: TGFb reporter assay (TGFb/SMAD Signaling Pathway SBE luciferase reporter cell line); format: cell-based; details: 5-6 h preincubation, then TGFb, 18 h, luciferase luminescence
Description: TGFβ/SMAD Signaling Pathway SBE reporter cell line was obtained from BPS Bioscience. Cells were passed, expanded, and stored in liquid nitrogen as per the supplier's instructions with the exception that growth media is changed to DMEM-C with Geneticin (DMEM supplemented with 10% fetal bovine serum, 1×NEAA, 1 mM Pyruvate, 2 mM glutamine, 50 μg/mL penicillin, 50 U/mL streptomycin and 400 μg/mL of Geneticin). The assay media was MEM supplemented with 0.5% fetal bovine serum, 1×NEAA, 1 mM Pyruvate, 50 μg/mL penicillin and 50 U/mL streptomycin.
TGFb/SMAD Signaling Pathway SBE reporter cell line was obtained from BPS Bioscience. Cells were passed/expanded/stored in liquid nitrogen per supplier's instruction with the exception that growth media was changed to DMEM-C with Geneticin (DMEM supplemented with 10% fetal bovine serum, IX NEAA, 1 mM Pyruvate, 2 mM glutamine, 50 μg/mL penicillin, 50 U/mL streptomycin and 400 ug/mL of Geneticin). The assay media was MEM supplemented with 0.5% fetal bovine serum, IX NEAA, 1 mM Pyruvate, 50 μg/mL penicillin and 50 U/mL streptomycin.
Reporter cells were harvested from the tissue culture flasks by incubation in small quantity of Versene at room temperature for three to five minutes after the media in the flask was removed and cells rinsed with PBS. Cells were counted and diluted in the assay media at 0.8×10^6 cells/mL then 50 uL/well were added to 96-well assay plate. Test samples (at desired concentrations diluted in assay media) were added to assay plate containing the 50 uL/well of cells (or media only), 50 uL per well, and incubated for 5-6 hours at 37° C. in a 5% CO2 humidified incubator. After that time, 15 uL of TGFb diluted to 12.5 ng/mL in the assay media was added to the plate. Controls included TGFb titration (from 25 to 0 ng/mL) without inhibitors, and media only (without cells, inhibitor or TGFb). Plates were incubated at 37° C. in a […] humidified incubator for 18 h. Luciferase substrate solution was subsequently added at 75 uL per well, incubated in dark with shaking at room temperature for 10 min, and luminescence was measured using a luminometer.

IC50 [1] [nM] | EC50 [2] [nM] | Structure (SMILES)
1000 to 10000 | 100 to 1000 | Cc1cccc(-c2nc(CN[C@@H](C)c3ccccc3)[nH]c2-c2ccc3ncnn3c2)n1 [Compound 12]
0.1 to 50 | 100 to 1000 | COC(=O)[C@@H](NCc1nc(-c2cccc(C)n2)c(-c2ccc3ncnn3c2)[nH]1)c1ccccc1 [Compound 16]
 | 10 to 100 | Cc1cccc(-c2nc(CNCc3ccccc3-c3ccccc3)[nH]c2-c2ccc3nccnc3c2)n1 [Compound 72]
 | 100 to 1000 | Cc1cccc(-c2nc(CNCc3ccccc3)[nH]c2-c2ccc3ncccc3n2)n1 [Compound 73]
 | 100 to 1000 | Cc1cccc(-c2nc(CNCc3ccccc3)[nH]c2-c2ccnc3ccccc23)n1 [Compound 74]
 | 100 to 1000 | Cc1cccc(-c2nc(CNCc3ccccc3)[nH]c2-c2ccccn2)n1 [Compound 75]
 | 10 to 100 | Cc1cccc(-c2nc(CNCc3ccccc3)[nH]c2-c2ccc3c(c2)OCO3)n1 [Compound 76]
 | 0.1 to 10 | Cc1cccc(-c2nc(CNCc3ccccc3)[nH]c2-c2ccc3nccnc3c2)n1 [Compound 77]
 | 0.1 to 10 | Cc1cccc(-c2nc(CNCCc3c(F)cccc3F)[nH]c2-c2ccc3ncccc3n2)n1 [Compound 78]
 | 100 to 1000 | Cc1cccc(-c2nc(CNCCc3c(F)cccc3F)[nH]c2-c2ccnc3ccccc23)n1 [Compound 79]
 | 100 to 1000 | Cc1cccc(-c2nc(CNCCc3c(F)cccc3F)[nH]c2-c2ccncc2)n1 [Compound 80]
 | 10 to 100 | Cc1cccc(-c2nc(CNCCc3c(F)cccc3F)[nH]c2-c2ccc3c(c2)OCO3)n1 [Compound 81]
 | 0.1 to 10 | Cc1cccc(-c2nc(CNCCc3c(F)cccc3F)[nH]c2-c2ccc3nccnc3c2)n1 [Compound 82]
 | 0.1 to 10 | Cc1cccc(-c2nc(CNCc3ccccc3C)[nH]c2-c2ccc3ncccc3n2)n1 [Compound 83]
 | 0.1 to 10 | COc1ccccc1CCNCc1nc(-c2cccc(C)n2)c(-c2ccc3ncccc3n2)[nH]1 [Compound 84]
 | 0.1 to 10 | Cc1cccc(-c2nc(CNCCN(C)c3ccccc3)[nH]c2-c2ccc3ncccc3n2)n1 [Compound 85]
 | 0.1 to 10 | Cc1cccc(-c2nc(CNCc3ccccc3C)[nH]c2-c2ccc3nccnc3c2)n1 [Compound 86]
 | 0.1 to 10 | COc1ccccc1CCNCc1nc(-c2cccc(C)n2)c(-c2ccc3nccnc3c2)[nH]1 [Compound 87]
 | 0.1 to 10 | Cc1cccc(-c2nc(CNCCN(C)c3ccccc3)[nH]c2-c2ccc3nccnc3c2)n1 [Compound 88]
 | 0.1 to 10 | Cc1cccc(-c2nc(CNCc3ccccc3)[nH]c2-c2ccc3ncccc3c2)n1 [Compound 90]
 | 10 to 100 | Cc1cccc(-c2nc(CNCc3ccccc3-c3ccccc3)[nH]c2-c2ccc3ncccc3c2)n1 [Compound 91]
